Measurements published in patent publication US10603335B2, “Cancer treatment combination compositions, methods and uses” (Board of Supervisors of Louisiana State University and …, priority 2016, dated 2020).

What was measured:
AsPC-1 spheroids = assay: 3D spheroid growth (IncuCyte ZOOM), AsPC-1; type: cell-based; settings: gemcitabine 0.5, 1.0, 5.0 μM, LHRH-curcumin 10, 20 μM, 5 days
Protocol: Panc-1 and Mia-Paca-2 cells were grown in 10% FBS DMEM. Cells were collected after trypsinization and resuspended in phenol-red free DMEM with 10% FBS. Cells were labeled with CellTracker Red (Life Techmologies) for 5 minutes. After labeling cells were washed with PBS and transfer into 96-well Corning 7007 ULA round bottom plates at 1,000 cells/well in 100 μl phenol-red free media with 10% FBS and 5% Matrigel. […] Spheroids were grown at 37° C. and 5% CO2 in IncuCyte ZOOM (Essen Bioscience). Images were acquired every 4 h for a period of 120 h post-treatment and software analysis was design to identify the red object in the well. The data were expressed as fold increase in spheroids size at the end of the treatment using the “average red object area in the well” as determined by the IncuCyte software analysis. Reproducibility was confirmed in three independent experiments. Spheroids grew at a uniform rate (FIG. 1).
Panc-1, Mia-Paca-2 and AsPC-1 spheroids were formed in 96-well round bottom plates as described. […] Media alone was used as control. The spheroids were grown for 5 days before quantification. Both gemcitabine and LHRH-curcumin were diluted in water.

[1] = tested on: cleaved PARP, XIAP and cIAP2 in Panc-1 cells; assay: Western blot of apoptosis markers and inhibitors of apoptosis, Panc-1; type: cell-based; settings: for apoptosis marker cleaved PARP: 24 h post-treatment, LHRH-curcumin 10-100 uM, gemcitabine 1-20 uM
Protocol: (§1) Pancreatic cells were collected after trypsinization and seeded in 12-well plates for 24 h before treatments. Treatments were performed as described in the Figure legends. Following treatment, whole cell lysates were collected in Laemmli buffer and analyzed by Western blot. The following primary antibodies were used: XIAP, c-IAP2, cleaved PARP, Caspase-3 (all from Cell Signaling), actin (Santa Cruz) and LHRHR (Abcam).
(§2) Western blot analysis. Actin, GAPDH and Ponceau staining were used as loading controls. Gemcitabine was diluted in water. Curcumin and LHRH-curcumin were diluted in DMSO. Cells were treated as follows:
Western blot analysis. Actin, GAPDH and Ponceau staining were used as loading controls. Gemcitabine was diluted in water. Curcumin and LHRH-curcumin were diluted in DMSO. The cells were treated as follows:
Western blot analysis. Actin was used as loading control. Both gemcitabine and LHRH-curcumin were diluted in water.

[2] = tested on: cleaved PARP, XIAP and cIAP2 in BxPC-3 cells; assay: Western blot of apoptosis markers and inhibitors of apoptosis, BxPC-3; type: cell-based; settings: for XIAP and c-IAP2 protein levels: 24 h; for apoptosis marker cleaved PARP: 24 h post-treatment, LHRH-curcumin 10-100 uM, gemcitabine 1-20 uM
Protocol: as §1, §2
Western blot analysis. Actin, GAPDH and Ponceau staining were used as loading controls. Gemcitabine was diluted in water. Curcumin and LHRH-curcumin were diluted in DMSO.

[3] = Body weight of tumor-bearing mice during treatment; settings: IP
Protocol: Male SCID/bg mice (5 weeks old; Taconic Biosciences, NY) were housed in the standard mouse Plexiglas cages in a room maintained at constant temperature and humidity under a 12 h light and darkness cycle. The experimental protocol was reviewed and approved by the Institutional Animal Care and Use Committee at the LSUHSC Shreveport.
The vehicle treated group received an equivalent amount of PBS. Tumor volumes were measured with calipers once a week and body weights of mice were measured once a week. Tumor volumes were calculated by the formula: V(mm3)=(length×width*2)/2, in which width was the shortest measurement in millimeters. Mice were necropsied 10 days after the last treatment for the low dose treatment (day 35 after the randomization and day 55 from the tumor cell implantation) or 2 days after the last treatment for high dose treatment (day 28 after the randomization and 48 from the tumor cell implantation). Tumors were dissected, weighed and photographed.

[4] = tested on: cleaved PARP, XIAP and cIAP2 in PATC53 cells; assay: Western blot of apoptosis markers, PATC53; type: cell-based
Protocol: PATC53 cells were treated as described and Western blot was perform in order to detect apoptosis markers (cleaved PARP) and inhibitors of apoptosis (XIAP and cIAP2) 24 h post-treatment. Actin was used as loading controls.
PATC53 cells were treated as presented and Western blot was perform in order to detect apoptosis markers (cleaved PARP) and inhibitors of apoptosis (XIAP and cIAP2) 48 h post-treatment. Actin was used as loading controls.
as §1, with “Pancreatic cancer” for “Pancreatic”, “treatment whole-cell” for “treatment, whole cell”, “used:” for “used: XIAP, c-IAP2,”, “c-IAP2, XIAP, cleaved Parp-1” for “Caspase-3”, “Cruz).” for “Cruz) and LHRHR (Abcam).”

PATX55 tissue slices = assay: Live Tissue Sensitivity Assay (LTSA), PATX55; type: cell-based; settings: 72 hours
Protocol: (§3) Animal experiment protocol was reviewed and approved by The University of Texas MD Anderson Cancer Center (Houston, Tex.) institutional review board and in accordance with the Guidelines for the Care and Use of Laboratory Animals published by the National Institutes of Health. PDXs were grown from cryopreserved early passages of PDXs in nude mice as described in previous publications (Kim M P, et al, Nat Protoc 2009; 4(11): 1670-80). Briefly, tumor samples stored in CryoStor™ CS10 storage medium were recovered and cut into about 2 mm3 fragments, soaked in Matrigel, and implanted into the subcutaneous space of Balb/c nude mice (5 mice/PDX). Tumors were harvested when they reach 1.5 cm in diameter for generating tissue slices for drug testing with quadruplicates.
(§4) About 100 tissue slices were produced from 1 tumorgraft with tissue slicer and arrayed in 96-well plates with previously established method (Roife D, et al, Clin Cancer Res 2016). […] Same volume of medium with 0.1% DMSO was added into control wells. After 72 hours, tissue viabilities were measured with PrestoBlue method. Viability inhibition will be calculated through normalization of viabilities of tissue slices treated with inhibitor against the viability of control (DMSO treated) slices. Inhibition of viability was further analyzed with t-test. […]

PATX113 tissue slices = assay: Live Tissue Sensitivity Assay (LTSA), PATX113; type: cell-based; settings: 72 hours
Protocol: as §3, §4

PATX193 tissue slices = assay: Live Tissue Sensitivity Assay (LTSA), PATX193; type: cell-based; settings: 72 hours
Protocol: as §3, §4

PATX110 tissue slices = assay: Live Tissue Sensitivity Assay (LTSA), PATX110; type: cell-based; settings: 72 hours
Protocol: as §3, §4

PATX176 tissue slices = assay: Live Tissue Sensitivity Assay (LTSA), PATX176; type: cell-based; settings: 72 hours
Protocol: as §3, §4

PATX102 tissue slices = assay: Live Tissue Sensitivity Assay (LTSA), PATX102; type: cell-based; settings: 72 hours
Protocol: as §3, §4

[5] = 24 h, curcumin, LHRH-curcumin 50 uM and 100 uM alone, gemcitabine alone
[6] = curcumin, LHRH-curcumin 50 uM and 100 uM alone, gemcitabine alone
[7] = high doses: gemcitabine 100 mg/kg once a week, LHRH-curcumin 40 mg/kg twice a week
[8] = low doses: gemcitabine 50 mg/kg once a week, LHRH-curcumin 20 mg/kg twice a week

## COc1cc(/C=C/C(=O)CC(=O)/C=C/c2ccc(OC(=O)CCCC(=O)NCCCC[C@@H](NC(=O)[C@H](Cc3ccc(O)cc3)NC(=O)[C@H](CO)NC(=O)[C@H](Cc3c[nH]c4ccccc34)NC(=O)[C@H](Cc3c[nH]cn3)NC(=O)[C@@H]3CCC(=O)N3)C(=O)N[C@@H](CC(C)C)C(=O)N[C@@H](CCCNC(=N)N)C(=O)N3CCC[C@H]3C(=O)NCC(N)=O)c(OC)c2)ccc1O [LHRH-curcumin, [DLys6]-LHRH-Curcumin]
AsPC-1 spheroids
  size of the spheroids: decrease the size of the spheroids
[1]; 24 h, 50 uM in the presence of gemcitabine (5 uM)
  XIAP and c-IAP2 protein levels: down-regulated
[1]; [5]
  XIAP and c-IAP2 protein levels: down-regulated
[1]; curcumin
  apoptosis marker cleaved PARP: initiate apoptosis as illustrated by the presence of cleaved PARP
[1]; 72 h, LHRH-curcumin 10 uM and 20 uM in the presence of gemcitabine (5 uM and 10 uM)
  XIAP and c-IAP2 protein levels: down-regulated
[2]; 50 uM in the presence of gemcitabine (5 uM)
  XIAP and c-IAP2 protein levels: down-regulated
[2]; [6]
  XIAP and c-IAP2 protein levels: down-regulated
[2]; curcumin
  apoptosis marker cleaved PARP: initiate apoptosis as illustrated by the presence of cleaved PARP
[3]; [7]
  body weight or body condition: does not negatively impact body weight or body condition
[3]; [8]
  body weight or body condition: does not negatively impact body weight or body condition
[4]; 48 h post-treatment, 30 μM
  apoptosis inhibitors (XIAP and cIAP2): Modest reduction of apoptosis inhibitors
PATX55 tissue slices; single agent
  Sensitivity To LHRH-C: Sensitive (The tissue was defined as sensitive to the treatment if both p<0.05 and at least 30% of tissue slice viability on average was inhibited)
PATX113 tissue slices; single agent
  Sensitivity To LHRH-C: Sensitive (The tissue was defined as sensitive to the treatment if both p<0.05 and at least 30% of tissue slice viability on average was inhibited)
PATX193 tissue slices; single agent
  Sensitivity To LHRH-C: Sensitive (The tissue was defined as sensitive to the treatment if both p<0.05 and at least 30% of tissue slice viability on average was inhibited)
PATX110 tissue slices; single agent
  Sensitivity To LHRH-C: Sensitive (The tissue was defined as sensitive to the treatment if both p<0.05 and at least 30% of tissue slice viability on average was inhibited)
PATX176 tissue slices; single agent
  Sensitivity To LHRH-C: Resistant
PATX102 tissue slices; single agent
  Sensitivity To LHRH-C: Resistant

## Nc1ccn([C@@H]2O[C@H](CO)[C@@H](O)C2(F)F)c(=O)n1 [gemcitabine, 2′,2′-difluoro 2′deoxycytidine, reference compound]
AsPC-1 spheroids
  size of the spheroids: decrease the size of the spheroids
[1]; [5]
  XIAP and c-IAP2 protein levels: doesn't affect XIAP and c-IAP2 levels
[1]; curcumin
  apoptosis marker cleaved PARP: no cleaved PARP was detected
[2]; [6]
  XIAP and c-IAP2 protein levels: doesn't affect XIAP and c-IAP2 levels
[2]; curcumin
  apoptosis marker cleaved PARP: Low levels of cleaved PARP was detected
[3]; [7]
  body weight or body condition: does not negatively impact body weight or body condition
[3]; [8]
  body weight or body condition: does not negatively impact body weight or body condition
[4]; 24 h post-treatment
  response of PATC53 cells (apoptosis markers): resistance
PATX55 tissue slices; Gem 10 μM
  tissue slice viability: 95.45
PATX113 tissue slices; Gem 10 μM
  tissue slice viability: 82.19
PATX193 tissue slices; Gem 10 μM
  tissue slice viability: 92.70
PATX110 tissue slices; Gem 10 μM
  tissue slice viability: 100.20
PATX176 tissue slices; Gem 10 μM
  tissue slice viability: 88.23
PATX102 tissue slices; Gem 10 μM
  tissue slice viability: 99.65
